For experiment [1] the following is noted: cytotoxic = toxicity for tumor cells in culture; anticancer = data obtained in clinical trials; cited from earlier work.
The subject of experiment [2] is MDA-MB-157. Briefly: Cell viability (SRB), inhibition of cell proliferation. In kind it is cell-based. The procedure: (§1) Cell Lines: CAL-51 (PIK3CA mutated) and MDA-MB-157 (without apparent genomic alteration of the PI3K-AKT-mTOR axis (NF1, TP53 mutated) were cultured in DMEM+10% FCS+200 μg/ml gentamicin, in humidified atmosphere, at 5% CO 2.
(§2) Drug: commercial HHT (Sigma-Aldrich), purified by recrystallization according to Liu's technique [U.S. Pat. No. 62,073, 14 May 1987], was provided free of charge by LeukePharma (Le Mans, France). The stock solution of 20 mM HHT citrate was obtained by dissolution in citric acid (Sigma-Aldrich), in equimolar amount or by direct dissolution of the crystalline homoharringtonine salt in sterile purified water. The following dilutions of this stock solution were performed using sterile PBS buffer. All of the solutions was stored at −80° C.
(§3) Cell viability: The cells were seeded in the 96-well plates at the concentration of 5000 cells/well (3.3×10^4/ml) for the MDA-MB-lines, and at the concentration of 1000 cells/well (6.6×10 3 ml) for CAL-51. After 24 hours of rest, at the confluence of 50-60%, the cells were treated with increasing concentrations of HHT for 24 h, 48 h and 72 h. After washing twice with sterile PBS and 48 h rest, the cells were fixed with trichloroacetic acid. After the addition of […] (SRB), the absorbance was measured at 540 nm (Multiskan™ FC plate photometer, Thermo Scientific). IC50s were calculated by CompuSyn (Chou & Talalay, ComboSyn Inc., Paramus, N.J., USA).

The test system of experiment [3] is CAL-51. The experiment is described as above. In kind it is cell-based. On the procedure: as §1, §2, §3
A further experiment relates to XIAP. As to the kind of experiment: Western blot, expression of apoptosis regulatory proteins. In kind it is cell-based. Conditions: 100 nM HHT; compared with Mcl-1. The procedure:
(§4) Western blot: 5×10^5 cells, in 10 ml of medium, were inoculated in the 100 mm Petri dishes. After 24 hours of rest, the cells were incubated with 100 nM of HHT for different times, staggered for 2 hours and 48 hours. Then, the cells were washed and lysed directly into the dishes (without trypsinization) using RIPA buffer (Pierce-ThermoScientific), containing a mixture of protease inhibitors (Sigma). The protein concentration was determined by the method of Bradford. Protein electrophoresis was performed in 12-30% polyacrylamide gels. After transfer to the PVDF membrane, the revelation was carried out by ECL Plus (Amersham).
A general note: In western blotting, separated proteins are transferred to a membrane and probed.

In another experiment the test system is Mcl-1. The description is as above. In kind it is cell-based. The note with it: 100 nM HHT; all lines analyzed except MDA-MB-231 (CAL-51, MDA-MB-468, MDA-MB-157). The procedure:
as §4

A further experiment deals with survivin. Described as above. The note with it: 100 nM HHT; CAL-51; same effect as for Mcl-1 (very fast and strong drop). In kind it is cell-based. On the procedure:
as §4

Experiment [4] relates to MDA-MB-157. Briefly: Cell cycle by flow cytometry. In kind it is cell-based. Conditions: MDA-MB-157, 48 hours, 50 nM HHT. On the procedure: (§5) Cell cycle and apoptosis: the number of cells in different phases of the cell cycle or in apoptosis was determined by flow cytometry using FITC Annexin V Apoptosis Detection Kit 1 (BD Biosciences) and following the manufacturer's recommendations. Briefly, 3×10^4 cells of each line were seeded in 6-well plates and, after 24 h resting, treated with increasing concentrations of HHT for 6-72 h, then washed and incubated with propidium iodide and or with FITC annexin V). The fluorescence was measured using a BD LSH II cytofluorometer (BD Biosciences).
For orientation: Flow cytometry measures light scatter and fluorescence of single cells or particles in a stream.

The subject of experiment [5] is CAL-51. Briefly: Cell cycle by flow cytometry. In kind it is cell-based. Conditions: CAL-51, 48 hours, 20 nM HHT. On the procedure: as §5
For experiment [6], the system named is MDA-MB-468. As to the kind of experiment: Cell cycle by flow cytometry. In kind it is cell-based. Conditions: MDA-MB-468, 48 hours, 20 nM or 50 nM HHT. On the procedure: as §5
For experiment [7], the system named is MDA-MB-231. As to the kind of experiment: Cell cycle by flow cytometry. The note with it: MDA-MB-231, 48 hours, 20 nM or 50 nM HHT. In kind it is cell-based. On the procedure:
as §5

Experiment [8] concerns MDA-MB-468. As to the kind of experiment: Cell viability (SRB), inhibition of cell proliferation. In kind it is cell-based. On the procedure: (§6) MDA-MB-468 (PTEN, RB1, SMAD4, mutated TP53, amplified EGFR/ERBB1) and MDA-MB-231 (highly metastatic, without alteration of PI3K-Akt-mTOR; KRAS, BRAF, CDKN2A, PDGFRA, (NF2, Mutated TP53) were cultured in Liebowitz's medium+10% FCS+200 μg/ml gentamycin, in a CO2-free atmosphere
as §2, §3

In experiment [9] the test system is MDA-MB-231. The experiment is described as above. In kind it is cell-based. Conditions: Homo sapiens; for viability at 0.05 µM / viability at 0.1 µM: read-out: viable fraction (Fv=% of viable cells). The procedure:
as §6, §2, §3

Experiment [10] has as its system MDA-MB-157. As to the kind of experiment: Apoptosis by flow cytometry (FITC Annexin V). In kind it is cell-based. Conditions: increasing concentrations, 6-72 h. On the procedure:
as §5

The subject of experiment [11] is CAL-51. As to the kind of experiment: Apoptosis by flow cytometry (FITC Annexin V). In kind it is cell-based. Conditions: increasing concentrations, 6-72 h. The procedure: as §5
The subject of experiment [12] is MDA-MB-468. As to the kind of experiment: Apoptosis by flow cytometry (FITC Annexin V). In kind it is cell-based. The note with it: increasing concentrations, 6-72 h. The procedure: as §5
Experiment [13] relates to MDA-MB-231. Briefly: Apoptosis by flow cytometry (FITC Annexin V). In kind it is cell-based. Conditions: regardless of concentration or incubation time. On the procedure:
as §5

A further experiment concerns MDA-MB-231 xenograft. As to the kind of experiment: In vivo study on MDA-MB-231 triple negative breast tumor xenograft. Details: species or system Swiss nudes immuno-depressed mice (nu/nu). Conditions: 1 mg of HHT (as salt) per kg subcutaneously twice daily for 8 days; difference between day 0 and day 10; control group increased 20-30%. On the procedure:
The efficacy of homoharringtonine in vivo on xenografts of the triple-negative breast cancer line (MDA-MB-231), was performed on Swiss nudes immuno-depressed mice (nu/nu), […]. −12 weeks. The tumor was grafted in 16 animals, by injecting 5×10^6 cells of the tumor strain, subcutaneously in the dorsal region, until a tumor volume of 200-300 mm 3 was obtained. 8 mice received 1 mg of HHT (as salt) per kg subcutaneously twice daily for 8 days. The control group (7 mice) received only physiological saline in the same dosage as HHT. Mice were sacrificed 3 days after stopping treatment, recovered xenografts, and measured tumor size. The tissues were then formalin-fixed and paraffin-embedded for subsequent histological analyzes.

For experiment [14], the system named is apoptosis regulatory proteins in MDA-MB-231. As to the kind of experiment: Western blot, expression of apoptosis regulatory proteins in line MDA-MB-231. In kind it is cell-based. The note with it: 100 nM HHT. The procedure:
as §4

The mark [15] stands for this setting: 24 h, 48 h, 72 h, regardless of the concentrations (p>0.05).
The mark [16] stands for this setting: Homo sapiens, 24 hours, range given for 3 out of 4 lines analyzed.

Where two headings read alike, the source gives them in different places.

Regarding `COC(=O)CC(O)(CCCCC(C)(C)O)C(=O)OC1C(OC)=CC23CCCN2CCc2cc4c(cc2C13)OCO4` (stereo not shown) [(1e), bishomoharringtonine], the Activity entry in experiment [1] was “none”.

Take `COC(=O)CC(O)(CC(C)(C)O)C(=O)OC1C(OC)=CC23CCCN2CCc2cc4c(cc2C13)OCO4` (stereo not shown) [(1c), norharringtonine]: the Activity result in experiment [1] is listed as “none”.

Consider `COC(=O)[C@@H](O)[C@](O)(CCC(C)C)C(=O)O[C@@H]1C(OC)=C[C@]23CCCN2CCc2cc4c(cc2[C@H]13)OCO4` [(1f), isoharringtonine], for which the Activity result in [1] was “none”.

In the case of `COC(=O)C[C@](O)(CCC(C)(C)O)C(=O)O[C@@H]1C(OC)=C[C@]23CCCN2CCc2cc4c(cc2[C@H]13)OCO4` [(1a), harringtonine], the Activity result in experiment [1] is “anticancer”.

Regarding neoharringtonine [(1g)], the Activity entry in experiment [1] is “cytotoxic”.

For the molecule `COC(=O)C[C@](O)(CCCC(C)(C)O)C(=O)O[C@@H]1C(OC)=C[C@]23CCCN2CCc2cc4c(cc2[C@H]13)OCO4` [HHT, homoharringtonine], the “effect on proliferation versus incubation time” value in the experiment with MDA-MB-157 [2] (setting [15]), in the experiment with CAL-51 [3] (setting [15]) and in the experiment with MDA-MB-468 [8] (setting [15]) was “independent of the incubation time” each time. Besides, the IC50 with MDA-MB-157 [2] (setting [16]) is 15.9 to 21.3 nM; in the experiment on CAL-51 [3] (setting [16]), 15.9 to 21.3 nM; with MDA-MB-468 [8] (setting [16]), 15.9 to 21.3 nM; in the experiment on MDA-MB-231 [9] (MDA-MB-231, 24 hours), 80.5 nM. Besides, the Activity entry in experiment [1] is listed as “anticancer”. Besides, the “reduction in the XIAP rate” value with XIAP is “more modest and occurred later”. Also, the “level of Mcl-1” value with Mcl-1 is “very fast and strong drop”. Further, the level of survivin entry in the experiment with survivin is listed as “same effect”. Besides, the “effect on the cell cycle” value was “accumulation of CAL-51 and MDA-MB-157 cells in Set GO/G1 phase” with MDA-MB-157 [4]; “accumulation of CAL-51 and MDA-MB-157 cells in Set GO/G1 phase” in the experiment with CAL-51 [5]; “stopped in the G2/M phase” with MDA-MB-468 [6]; “stopped in the G2/M phase” with MDA-MB-231 [7]. The viability at 0.05 µM was 58.1 ± 14.5% with MDA-MB-231 [9] (MDA-MB-231, 24 h) and 25.9 ± 2.4% in the experiment with MDA-MB-231 [9] (MDA-MB-231, 72 h). For the same molecule, the viability at 0.1 µM with MDA-MB-231 [9] (MDA-MB-231, 24 h) was found to be 41.7 ± 13.3%; in the experiment on MDA-MB-231 [9] (MDA-MB-231, 72 h), 18.7 ± 4.8%. Moreover, the “effect on apoptosis (% of cells in early and late apoptosis)” value was “induces apoptosis of CAL-51, MDA-MB-468 and MDA-MB-157 cells in a concentration and time dependent manner” in the experiment on MDA-MB-157 [10]; “induces apoptosis of CAL-51, MDA-MB-468 and MDA-MB-157 cells in a concentration and time dependent manner” in the experiment on CAL-51 [11]; “induces apoptosis of CAL-51, MDA-MB-468 and MDA-MB-157 cells in a concentration and time dependent manner” in the experiment with MDA-MB-468 [12]; “no significant apoptosis was observed” with MDA-MB-231 [13]. Also, the “decrease in tumor volume” value with MDA-MB-231 xenograft fell in the range of 20 to 60%. Further, in experiment [14], the “level of apoptosis regulatory proteins” value is “no effect”.

`COC(=O)C[C@](O)(CCC(C)C)C(=O)O[C@@H]1C(OC)=C[C@]23CCCN2CCc2cc4c(cc2[C@H]13)OCO4` [(1d), deoxyharringtonine]: in [1], the Activity entry was “anticancer”.

Usually IC50 stands for the concentration that inhibits the measured activity by half. Higher therefore signals weaker potency in that assay.

(Values after US20190231793A1, “USE OF HARRINGTONINES IN THE TREATMENT OF BREAST CANCER, IN PARTICULAR TRIPLE-NEGATIVE BREAST CANCER” (priority 2016, published 2019).)
